Data on one molecule can be found in patent US10647672B2, “Modulators of cell adhesion, methods and compositions therefor” (Zonula Incorporated, priority 2017, dated 2020).

The test system of assay [1] is Panc-1 human pancreatic cancer cells. The assay is described as follows: cancer cell adhesion, visual retraction of cells. It counts as cell-based. The settings on record: 24 hours, light microscopy. The protocol:
(§1) In these experiments, Panc-1 human pancreatic cancer cells were maintained in Dulbecco's minimum essential medium supplemented with 10% fetal calf serum at 37° C. in 5% CO2 in air. All culture reagents were purchased from Invitrogen (Burlington, ON). Panc-1 cells (ATCC CRL-1469) were plated at 20,000 cells per well of a 4-well tissue culture slide (NalgeNunc, Naperville, Ill.). After 24 hours of culture, cells were treated for 24 hours with medium containing varying concentrations of compounds 15 and 16 dissolved in dimethylsulfoxide (DMSO; final concentration of 1% DMSO in the medium), or 1% DMSO alone in the medium and then fixed with 4% paraformaldehyde dissolved in phosphate buffered saline and stained with hematoxylin. Disruption of cell adhesion was determined visually within 24 hours, by observing retraction of the cells from one another.

For assay [2] the test system is unchanged. Put plainly: cell death, trypan blue exclusion count. It counts as cell-based. The settings on record: 24 hours. How it is done:
as §1
In order to determine the effect of the compounds on cell death, the medium was aspirated from the treated and untreated cultures and the non-adherent cells collected by centrifugation (1000 rpm for 5 min). The cells were resuspended in phosphate buffered saline and combined with trypan blue (Sigma). Cells were then put in a hemocytometer and the number of cells that excluded the trypan blue counted using a microscope to determine the number of live cells.

For assay [3], the system named is human cancer-associated fibroblast (CAF010415). Put plainly: cancer-associated fibroblast viability, CELLTITER GLO. It counts as cell-based. The settings on record: in vitro; measured after 24 h and 48 h. How it is done:
In this study, CAFs were isolated as described by Orr et al, (On, B., et al., Oncogene, 31, 1130-1142, 2012). The cells were grown in Dulbecco's modified Eagle medium (Multicell) with 10% fetal bovine serum. CAFs are human primary fibroblasts, grown from patient prostate tumor samples. These cells are not an established cell line, nor are they immortalized, and at some point they will senesce.
In these experiments, cells were seeded in a 96-well plate (Corning) (3,000 cells/well). The next day, the drug was added at the indicated concentration (FIG. 8). After 24 h and 48 h cell viability was measured using CELLTITER GLO® (Promega, Madison, Wis.) according to the manufacturer's protocol. All assays were repeated at least 3 times in triplicate each time. The results are depicted in FIG. 8 as SEM. […] The N-cadherin antagonist compound 15 thus decreases the viability of human pancreatic cancer (PC) cells and CAFs. These observations indicate that N-cadherin antagonists can be used to treat PC.

Assay [4] relates to human fibroblast-like synoviocytes (FLS). The assay is described as follows: fibroblast-like synoviocyte cell adhesion. The settings on record: 24 hours treatment. It counts as cell-based. How it is done:
In these experiments, human fibroblast-like synoviocytes (FLS) (ScienCell Research Laboratories (Carlsbad, Calif.; Cat #4700) were maintained in complete Synoviocyte media (ScienCell Research Laboratories Carlsbad, Calif. Cat #4701) at 37° C. in 5% CO2 in air. FLS cells were plated at 1.5×10^4 cells per well of a 4-well tissue culture slide (NalgeNunc, Naperville, Ill.). After 24 hours of culture, cells were treated for 24 hours with medium containing varying concentrations of compounds 15 dissolved in dimethylsulfoxide (DMSO; final concentration of 1% DMSO in the medium), or 1% DMSO alone in the medium. The cells were then fixed with 4% paraformaldehyde dissolved in phosphate buffered saline and stained with hematoxylin. Disruption of cell adhesion was determined visually within 24 hours, by observing retraction of the cells from one another.

The test system of assay [5] is 5TGM1 mouse MM plasma cells. The assay is described as follows: C57BL/KaLwRij murine model of Multiple Myeloma, tumor burden. Type of assay: in vivo. The settings on record: 50 mg/kg/day i.p. for 5 days; assessed at days 14, 21 and 28. How it is done:
In these experiments, 5TGM1 mouse MM plasma cells (expressing a dual GFP and luciferase reporter construct (Noll Neoplasia 2014; Cheong 2015)) were maintained in Iscove's modified Dulbecco's medium (IMDM) with 20% fetal calf serum (FCS; Thermo Fisher Scientific, Waltham, Mass., USA) and supplements.
C57Bl/KaLwRij mice (aged 6-8 weeks) were used for all in vivo studies. For MM tumor studies, mice were inoculated with 5×10^5 5 TGM1 cells in 100 μl phosphate buffered saline by intravenous injection (i.v.) via the tail vein. Total body tumor burden was assessed at days 14, 21 and 28 using the Xenogen IVIS, as previously described (Mrozik, K. M., et al., 2015, Br. J. Haematol. 171, 387-399.). All animals used for therapy studies were randomized by age, sex and, where appropriate, tumor burden. Compound 15 was dissolved at a concentration of 10 mg/ml in saline containing 40% 2-hydroxyproprol-β-cyclodextrin. Either compound 15 (50 mg/kg/day) (N=8) or vehicle (40% 2-hydroxyproprol-β-cyclodextrin in saline) (N=7) alone was administered to mice i.p. commencing 15 minutes prior to 5TGM1 cell injection for 5 days. […] Compound 15 is therefore effective for treatment of MM.

For the molecule `COc1ccc(OC[C@@H](O)CNC2CCN(C[C@H](O)COc3ccc(Cl)c(Cl)c3)CC2)cc1` [Compound 15, (S)-1-(3,4-Dichlorophenoxy)-3-(4-((S)-2-hydroxy-3-(4-methoxyphenoxy)propylamino)piperidin-1-yl)propan-2-ol], the “disruption of cell adhesion” value was “not disrupted” in assay [1] (0.1 μM), “disrupted cell adhesion” in assay [1] (1 μM), “disrupted cell adhesion” in assay [1] (10 μM) and “disrupted cell adhesion” in assay [1] (100 μM). The “cell death in comparison to the control” value in assay [2] (10 μM) and in assay [2] (100 μM) was “caused cell death” in each case. Also, the cell viability result in assay [3] is “decreases human cancer-associated fibroblast (CAF010415) viability”. In addition, the “concentration range in which effects on FLS cells (disruption of cell adhesion) can be seen” value in assay [4] lay in the range of 5 to 50 µM. Also, the “total body tumour burden” value in assay [5] is on record as “caused a decrease in tumour burden”.
